Laboratory results from patent US11311539B2, “Compositions and methods for treatment of fragile X syndrome” (Children's Hospital Medical Center, priority 2015, dated 2022).
“Also recorded” adds a separate entry of the source.

Key:
Fmr1 KO mice [1] = experiment: Acoustic startle paradigm (whole body flinch, Vmax); format: in vivo; details: adult Fmr1 KO mice
Description: In adulthood, Fmr1 KO mice have abnormal motor responses to sensory stimuli compared to WT mice in an acoustic startle paradigm.
(§1) Throughout experiments in Fmr1 KO mice, we treated animals with 1 mg/kg AZD7325, 3 mg/kg AZD7325 or vehicle (VEH) by oral gavage to mimic the human exposure route. Juvenile mice were treated acutely and adult mice were treated chronically prior to and throughout behavior analysis.
(§2) Audiogenic seizure susceptibility in Fmr1 KO mice, which is thought to be the result of increased neuronal activity in response to sensory stimuli, peaks around the third week of life and manifests as wild running which is typically followed by tonic-clonic seizure. […] In adulthood, Fmr1 KO mice have abnormal motor responses to sensory stimuli compared to WT mice in an acoustic startle paradigm. […] This type of deficit in the VEH-treated Fmr1 KO mice is reminiscent of the exaggerated anxiety responses people with FXS commonly display.

Fmr1 KO mice [2] = experiment: Audiogenic seizure susceptibility (120 dB siren); format: in vivo; details: oral gavage, acute, 30 min prior to testing, juvenile mice, VEH approximately 60%
Description: as §1, §2

Fmr1 KO mice [3] = experiment: Conditioned fear response to mild foot shock (cued portion); format: in vivo; details: both dose levels (1 and 3 mg/kg), oral gavage, KO mice vs WT
Description: as §1, §2

Fmr1 KO mice [4] = experiment: Novel object recognition paradigm; format: in vivo; details: low dose (1 mg/kg), oral gavage, KO mice vs KO+VEH
Description: as §1, §2
Based upon preclinical data in FXS implicating insufficient GABA(A) activity in the pathophysiology of the disorder combined with preclinical and human evidence (unpublished data) supporting the tolerability and effectiveness of improving aberrant behavior, 4-amino-8-(2-fluoro-6-methoxy-phenyl)-N-propyl-cinnoline-3-carboxamide is an ideal molecule to develop as a clinical treatment in humans with FXS.

FXS KO mice [5] = details: preclinical literature; cited from earlier work
FXS KO mice [6] = details: preclinical literature; cited from earlier work; remark: listed apart in the source
FXS KO mice [7] = details: literature; cited from earlier work
FXS KO mice [8] = details: literature; cited from earlier work; remark: listed apart in the source
FXS KO mice [9] = details: literature; cited from earlier work; remark: listed apart in the source

Compound: CCCNC(=O)c1nnc2c(-c3c(F)cccc3OC)cccc2c1N [AZD7325, 4-amino-8-(2-fluoro-6-methoxy-phenyl)-N-propyl-cinnoline-3-carboxamide]
- Whole body flinching, low-level acoustic startle (Fmr1 KO mice [1]; 82 db white noise burst, 10 trial blocks, chronic low dose): significantly reduced whole body flinching
- Whole body flinch response, high level acoustic stimulus (Fmr1 KO mice [1]; 120 dB stimulus, chronic treatment): improves this response to WT levels
- Fmr1 KO mice displaying wild running followed by seizure (Fmr1 KO mice [2]; high dose (3 mg/kg)): 0%
- Fmr1 KO mice displaying wild running followed by seizure (Fmr1 KO mice [2]; low dose (1 mg/kg)): 11%
- Conditioned fear response, cued portion of the test (Fmr1 KO mice [3]): normalizing this behavior in KO mice
- Object memory in novel object recognition (discrimination index) (Fmr1 KO mice [4]): attenuates deficits in object memory
- Object memory in novel object recognition (discrimination index) (Fmr1 KO mice [4]; listed as 4-amino-8-(2-fluoro-6-methoxy-phenyl)-N-propyl-cinnoline-3-carboxamide): attenuates deficits in object memory; also recorded: greater interest in the novel object

Compound: CC(=O)[C@H]1CC[C@H]2[C@@H]3CC[C@H]4C[C@H](O)CC[C@]4(C)[C@H]3C(=O)C[C@]12C [alphaxalone]
- Audiogenic seizures (FXS KO mice [5]): rescue of audiogenic seizures
- Anxiety (FXS KO mice [6]): reductions in anxiety

Compound: Oc1noc2c1CCNC2 [gaboxadol]
- Prepulse inhibition (PPI) alterations (FXS KO mice [7]): reduced prepulse inhibition (PPI) alterations
- Neuron excitability deficits in the amygdala (FXS KO mice [8]): restored neuron excitability deficits in the amygdala
- Hyperactivity (FXS KO mice [9]): reduced hyperactivity
